The assay relates to BDF1 mice, P388 leukemia ip, median survival T/C. Briefly: NCI In Vivo Anticancer Drug Screen. Data for tumor model P388 Leukemia (intraperitoneal) in B6D2F1 (BDF1) mice. The settings on record: endpoint: median survival time, higher = longer survival. In a few lines: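 Steps: implant the tumour, treat one group with compound and another with vehicle, record survival, then divide treated by control.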

The mark [1] stands for this setting: dose: 100.0 mg/kg/injection, schedule: Q04DX003 (ip), vehicle: saline.
The mark [2] stands for this setting: dose: 100.0 mg/kg/injection, schedule: Q04DX003 (ip), vehicle: Klucel (hydroxypropylcellulose) (HPC).
[3] abbreviates: dose: 200.0 mg/kg/injection, schedule: Q04DX003 (ip), vehicle: Klucel (hydroxypropylcellulose) (HPC).
[4] abbreviates: dose: 50.0 mg/kg/injection, schedule: Q04DX003 (ip), vehicle: saline.
Setting [5] is: dose: 100.0 mg/kg/injection, schedule: Q01DX009 (ip), vehicle: Klucel (hydroxypropylcellulose) (HPC).

SMILES strings stand for the structures. Where “and” joins values, the source holds several entries; their conditions need not be identical. Equal values may be shown once. Toxic doses and inconclusive results are not listed. Non-standard residues stand in square brackets, D forms with d. Residues, ends and D or L forms follow the SMILES beside them. ξ: configuration not given here. ξF = NC(Cc1ccccc1)C(=O)O

`CCCCCCCCCCCCCCCCOCCCCCCCCCCCCCCCC`: the T/C is, setting by setting: (dose: 100.0 mg/kg/injection, schedule: Q01DX009 (ip), vehicle: other) 86 % of control; (dose: 100.0 mg/kg/injection, schedule: Q04DX003 (ip), vehicle: other) 91 % of control; (dose: 200.0 mg/kg/injection, schedule: Q01DX009 (ip), vehicle: other) 86 % of control; (dose: 200.0 mg/kg/injection, schedule: Q04DX003 (ip), vehicle: other) 91 % of control.

For `Cc1ncc(CO)c(CO)c1O`, the T/C by setting is: under setting [1], 122 % of control; (dose: 200.0 mg/kg/injection, schedule: Q04DX003 (ip), vehicle: saline) 113 % of control; (dose: 400.0 mg/kg/injection, schedule: Q04DX003 (ip), vehicle: saline) 95 % of control.

`O=C1c2ccccc2CCC12OC2c1ccccc1[N+](=O)[O-]` (configuration not stated): the T/C is, setting by setting: (dose: 50.0 mg/kg/injection, schedule: Q04DX003 (ip), vehicle: Klucel (hydroxypropylcellulose) (HPC)) 110 % of control; under setting [2], 100 % of control; under setting [3], 110 % of control.

For `NC(Cc1ccccc1)C(=O)NCC(=O)NCC(=O)O` (stereo not drawn) (H-[ξF]-Gly-Gly-OH), the T/C is 95 % of control (dose: 100.0 mg/kg/injection, schedule: Q04DX003 (ip), vehicle: saline with Tween-80); 104 % of control (dose: 200.0 mg/kg/injection, schedule: Q04DX003 (ip), vehicle: saline with Tween-80); 109 % of control (dose: 400.0 mg/kg/injection, schedule: Q04DX003 (ip), vehicle: saline with Tween-80).

For `CC12CCC3C(CCC4=CC(=O)C(C(O)(C(F)(F)F)C(F)(F)F)CC43C)C1CC(C(O)(C(F)(F)F)C(F)(F)F)C2=O` (configuration not stated), the T/C by setting is: (dose: 100.0 mg/kg/injection, schedule: Q01DX001 (sc), vehicle: steriod suspending solution) 100 % of control; (dose: 200.0 mg/kg/injection, schedule: Q01DX001 (sc), vehicle: steriod suspending solution) 100 % of control; (dose: 400.0 mg/kg/injection, schedule: Q01DX001 (sc), vehicle: steriod suspending solution) 95 % of control.

With `COc1cc(NS(C)(=O)=O)ccc1Nc1c2ccc([N+](=O)[O-])cc2nc2c(C)c(C)ccc12`, the T/C is, setting by setting: (dose: 0.29 mg/kg/injection, schedule: Q04DX003 (ip), vehicle: saline with Tween-80) 112 % of control; (dose: 0.44 mg/kg/injection, schedule: Q04DX003 (ip), vehicle: saline with Tween-80) 154 % of control; (dose: 0.88 mg/kg/injection, schedule: Q01DX009 (ip), vehicle: saline with Tween-80) 185 % of control; (dose: 1.0 mg/kg/injection, schedule: Q04DX003 (ip), vehicle: saline with Tween-80) 154 % of control; (dose: 1.33 mg/kg/injection, schedule: Q01DX009 (ip), vehicle: saline with Tween-80) 203 % of control; (dose: 2.0 mg/kg/injection, schedule: Q01DX009 (ip), vehicle: saline with Tween-80) 254 % of control. The T/C was 269 % of control (dose: 2.66 mg/kg/injection, schedule: Q01DX009 (ip), vehicle: saline with Tween-80); 273 % of control (dose: 3.0 mg/kg/injection, schedule: Q01DX009 (ip), vehicle: saline with Tween-80); 272 % of control (dose: 4.0 mg/kg/injection, schedule: Q01DX009 (ip), vehicle: saline with Tween-80); 211 % of control (dose: 6.0 mg/kg/injection, schedule: Q01DX009 (ip), vehicle: saline with Tween-80); 295 % of control (dose: 9.0 mg/kg/injection, schedule: Q01DX009 (ip), vehicle: saline with Tween-80); 236 % of control and 281 % of control (dose: 22.0 mg/kg/injection, schedule: Q04DX003 (ip), vehicle: saline with Tween-80). In addition, the T/C reads like this: (dose: 25.0 mg/kg/injection, schedule: Q04DX003 (ip), vehicle: saline) 260 % of control; (dose: 33.0 mg/kg/injection, schedule: Q04DX003 (ip), vehicle: saline with Tween-80) 272 % of control and 281 % of control; (dose: 50.0 mg/kg/injection, schedule: Q04DX003 (ip), vehicle: saline with Tween-80) 272 % of control and 281 % of control; under setting [4], 230 % of control; (dose: 75.0 mg/kg/injection, schedule: Q04DX003 (ip), vehicle: saline with Tween-80) 272 % of control and 122 % of control; under setting [1], 95 % of control.

As to `Cc1cc(=O)[nH]c(N/N=C2/CCCCC2C)n1` (configuration not stated), the T/C (dose: 8.0 mg/kg/injection, schedule: Q01DX009 (ip), vehicle: Klucel (hydroxypropylcellulose) (HPC)) was 107 % of control; the T/C (dose: 16.0 mg/kg/injection, schedule: Q01DX009 (ip), vehicle: Klucel (hydroxypropylcellulose) (HPC)) is 107 % of control; the T/C (dose: 33.0 mg/kg/injection, schedule: Q01DX009 (ip), vehicle: Klucel (hydroxypropylcellulose) (HPC)) is 100 % of control; the T/C under setting [5] was 100 % of control; the T/C under setting [2] was 109 % of control; the T/C under setting [3] was 95 % of control.

Take `CC(=O)Nc1ccc([I+]c2ccc([N+](=O)[O-])cc2)cc1`: the T/C was 99 % of control (dose: 12.5 mg/kg/injection, schedule: Q01DX009 (ip), vehicle: Klucel (hydroxypropylcellulose) (HPC)); 101 % of control (dose: 25.0 mg/kg/injection, schedule: Q01DX009 (ip), vehicle: Klucel (hydroxypropylcellulose) (HPC)); 119 % of control (dose: 25.0 mg/kg/injection, schedule: Q01DX009 (ip), vehicle: saline with Tween-80); 116 % of control (dose: 75.0 mg/kg/injection, schedule: Q01DX009 (ip), vehicle: saline with Tween-80); 118 % of control under setting [5]; 115 % of control (dose: 100.0 mg/kg/injection, schedule: Q01DX009 (ip), vehicle: saline with Tween-80).

Turning to `COc1cccc(NN)c1`, the T/C (dose: 25.0 mg/kg/injection, schedule: Q01DX009 (ip), vehicle: saline) is 113 % of control; the T/C (dose: 50.0 mg/kg/injection, schedule: Q01DX009 (ip), vehicle: saline) is 104 % of control; the T/C under setting [4] was 100 % of control; the T/C under setting [1] is 91 % of control.

`O=[N+]([O-])c1cc([N+](=O)[O-])c(Br)cc1Cl`: the T/C reads like this: (dose: 5.0 mg/kg/injection, schedule: Q01DX009 (ip), vehicle: Klucel (hydroxypropylcellulose) (HPC)) 101 % of control; (dose: 10.0 mg/kg/injection, schedule: Q01DX009 (ip), vehicle: Klucel (hydroxypropylcellulose) (HPC)) 110 % of control; (dose: 20.0 mg/kg/injection, schedule: Q01DX009 (ip), vehicle: Klucel (hydroxypropylcellulose) (HPC)) 112 % of control.

On to `COc1cc2c3cc1Oc1c(OC)c(OC)cc4c1C(Cc1ccc(O)c(c1)-c1cc(ccc1OC)CC3N(C)CC2)N(C)CC4` (configuration not stated), for which the T/C was 91 % of control (dose: 1.56 mg/kg/injection, schedule: Q01DX009 (ip), vehicle: Klucel (hydroxypropylcellulose) (HPC)); 87 % of control (dose: 3.13 mg/kg/injection, schedule: Q01DX009 (ip), vehicle: Klucel (hydroxypropylcellulose) (HPC)); 87 % of control (dose: 6.25 mg/kg/injection, schedule: Q01DX009 (ip), vehicle: Klucel (hydroxypropylcellulose) (HPC)); 88 % of control (dose: 50.0 mg/kg/injection, schedule: Q01DX009 (ip), vehicle: carboxymethylcellulose (CMC)).
